In PMC10743653, “Combined In Silico and In Vitro Analyses to Assess the Anticancer Potential of Thiazolidinedione–Thiosemicarbazone Hybrid Molecules” (International Journal of Molecular Sciences, 2023):

Key:
[1] = Ferric-reducing antioxidant power (FRAP) assay
From the text: (§1) Antioxidant activity is a complex procedure, usually happening through several multiple or predominant chemical mechanisms (i.e., hydrogen atom transfer (HAT), single electron transfer (SET), and the ability to chelate transition metals), and it is influenced by many factors, which cannot be fully described with one single method. Therefore, it is important to perform more than one type of measurement to take into account the various mechanisms of antioxidant action. In this study, to assess the antioxidant activity of TZD–TSCs 2–5, two complementary tests were used: a DPPH (2,2-diphenyl-1-picrylhydrazyl) free radical-scavenging ability assay, that detects the HAT and SET mechanisms, and a FRAP (ferric reducing antioxidant power) assay, that prefers the […] mechanism. The antioxidant powers of 2–5 were compared to standard antioxidants, such as the water-soluble synthetic analogue of vitamin E (Trolox) and ascorbic acid (vitamin C).
Each compound concentration (25, 75, 150, and 200 μg/mL, respectively) was dissolved in Milli-Q water and mixed with an equal volume of 0.2 M sodium phosphate buffer (pH 6.6) and 1% potassium ferricyanide. The mixture was incubated for 30 min at 37 °C. Thereafter, 10% trichloroacetic acid (w/v) was added and the mixture was centrifuged at 1000 g for 5 min. One mL of the upper layer was mixed with an equal volume of Milli-Q water and 0.1% ferric chloride. The absorbance was read at 700 nm using an EL800 Universal Microplate Reader (BioTek Instruments, Winooski, VT, USA). Ascorbic acid (0–150 μg/mL) was used as a positive control.

HepG2 cells = experiment: Cell migration (wound healing) assay, HepG2; assay type: cell-based, human; details: HepG2, IC50 doses (2: 10.39 μM; 3: 2.97 μM), 24 h
Procedure: The possible anti-migratory effect of 2 and 3 was examined against HepG2 and T98G cells, which most effectively responded to TZD–TSC treatment. The ability of cells to cover the scratched area was monitored after 24 h of incubation with compounds 2 and 3. […] Thus, we can conclude that the anticancer potential of the investigated compounds is enriched by their anti-metastatic effect.
Cell migration ability was evaluated according to a wound healing assay. On the day of the experiment, HepG2 and T98G cells were collected from monolayers using trypsin/EDTA and seeded on 6-well plates at a density of 1 × 10^5 cells mL^−1. After 24 h, when the confluence of cells reached about 80%, a vertical linear scratch was created in the monolayer with a sterile pipette tip. The cells were washed three times with a phosphate-buffered saline (PBS) to remove all cellular debris. […] The open wound area was measured with the NIH ImageJ software version 1.53t (Bethesda, Rockville, MD, USA). The percentage of wound closure was calculated using the following formula [81]: Wound closure (%)=open wound area at 0 h −open wound area at 24 h or 48 h/open wound area at 0 h×100%

[2] = DPPH free radical scavenging test
From the text: as §1
The free radical scavenging activity of […] was measured by the DPPH assay. Briefly, 100 μl of DPPH solution (0.2 mg/mL in ethanol) was added to 100 μL of the tested compound concentrations (25, 75, 150, and 200 μg/mL, respectively). Trolox, at increasing concentrations (1–50 μg/mL), was used as a standard. After 20 min of incubation at room temperature, the absorbances of the solutions were measured at 515 nm. The lower the absorbance, the higher the free radical scavenging activity of the compound. The activity of each compound was determined by comparing its absorbance with that of the standard.
The ability of the compounds to scavenge the DPPH radical was calculated by the following formula:DPPH scavenging effect (%) = [(Xcontrol − Xcompound/Xcontrol) × 100], where Xcontrol is the absorbance of the control and Xcompound is the absorbance in the presence of TZD-TSCs preparations.

Row | Structure (SMILES) | FRAP reduction value corresponding to concentration of ascorbic acid ([1]; compound at 25 μg/mL) | FRAP reduction value corresponding to concentration of ascorbic acid ([1]; compound at 75 μg/mL) | FRAP reduction value corresponding to concentration of ascorbic acid ([1]; compound at 150 μg/mL) | FRAP reduction value corresponding to concentration of ascorbic acid ([1]; compound at 200 μg/mL) | Migration of cancer cells (wound healing) (HepG2 cells) | DPPH reduction value corresponding to concentration of Trolox ([2]; compound at 25 μg/mL) | DPPH reduction value corresponding to concentration of Trolox ([2]; compound at 75 μg/mL) | DPPH reduction value corresponding to concentration of Trolox ([2]; compound at 150 μg/mL) | DPPH reduction value corresponding to concentration of Trolox ([2]; compound at 200 μg/mL)
1 | O=C(C=C1SC(=O)NC1=O)Oc1ccccc1C=NNC(=S)Nc1ccccc1Cl [TZD–TSC 2] | 2.43 µg/mL | 4.32 µg/mL | 3.51 µg/mL | 7.84 µg/mL | almost completely suppressed | 2.942 µg/mL | 6.670 µg/mL | 11.412 µg/mL | 15.068 µg/mL
2 | O=C(C=C1SC(=O)NC1=O)Oc1ccccc1C=NNC(=S)Nc1cccc(Cl)c1 [TZD–TSC 3] | 0.81 µg/mL | 0.27 µg/mL | 1.08 µg/mL | 1.89 µg/mL | almost completely suppressed | 2.616 µg/mL | 9.168 µg/mL | 17.167 µg/mL | 21.439 µg/mL
